Reference: PubChem BioAssay (NCI)
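1) Cells in 96-well plates. 2) Compound, 48 h, 5 concentrations. 3) Linear interpolation between surrounding doses. 4) Unreached endpoint = highest concentration. At the TGI there is no net growth.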

Tests used:
Assay in all cases: inhibition of tumour cell growth, NCI panel, 48 h
U251 CNS = system: U251 CNS
SK-MEL-28 melanoma = system: SK-MEL-28 melanoma
CAKI-1 renal = system: CAKI-1 renal
RPMI-8226 leukemia = system: RPMI-8226 leukemia
RXF 393 renal = system: RXF 393 renal
HOP-92 NSCLC = system: HOP-92 NSCLC
OVCAR-4 ovarian = system: OVCAR-4 ovarian
MCF7 breast = system: MCF7 breast
M14 melanoma = system: M14 melanoma
ACHN renal = system: ACHN renal
MDA-MB-435 = system: MDA-MB-435
OVCAR-5 ovarian = system: OVCAR-5 ovarian
HCC-2998 colon = system: HCC-2998 colon
HT29 colon = system: HT29 colon
SN12C renal = system: SN12C renal
MDA-N = system: MDA-N
SF-539 CNS = system: SF-539 CNS
UACC-62 melanoma = system: UACC-62 melanoma
TK-10 renal = system: TK-10 renal
COLO 205 colon = system: COLO 205 colon

COC(=O)N1CC2C3C4CC(C(c5ccccc5)=C4c4ccccc4)C3C21 (stereo not given) showed a TGI (U251 CNS) of 27.5 µM, a TGI (SK-MEL-28 melanoma) of 35.4 µM and a TGI (CAKI-1 renal) of 32.8 µM. For the same molecule, the TGI (RPMI-8226 leukemia) was 53.4 µM, the TGI (RXF 393 renal) was 39.9 µM and the TGI (HOP-92 NSCLC) was 24.5 µM. It also gave a TGI (OVCAR-4 ovarian) of 29.5 µM, a TGI (MCF7 breast) of 78.3 µM and a TGI (M14 melanoma) of 51.9 µM. For the same molecule, the TGI (ACHN renal) was 52.3 µM, the TGI (MDA-MB-435) was 32.8 µM and the TGI (OVCAR-5 ovarian) was 91.2 µM. The TGI (HCC-2998 colon) was 31.5 µM, the TGI (HT29 colon) was 37.7 µM and the TGI (SN12C renal) was 33.1 µM. It also gave a TGI (MDA-N) of 46.5 µM, a TGI (SF-539 CNS) of 32 µM and a TGI (UACC-62 melanoma) of 27 µM. For the same molecule, the TGI (TK-10 renal) was 30.8 µM and the TGI (COLO 205 colon) was 45.2 µM.
